Experimental data taken from patent US20060069132A1, “Azolecarboxamide herbicides” (priority 2004, published 2006).

Assays:
cocklebur = test: Test C pre-/postemergence herbicide test; type: in vivo, Xanthium strumarium
Outline: (§1)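 Pre- and postemergence application, solvent/surfactant formulation; post at 1- to 4-leaf stage (2–18 cm). Greenhouse 12–14 d. Visual rating vs controls, 0 = no effect, 100 = complete control.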

velvetleaf = test: Test C pre-/postemergence herbicide test; type: in vivo, Abutilon theophrasti; conditions: for Velvetleaf plant response rating: Preemergence, 500 g ai/ha, scale 0 to 100, 0 no effect, 100 complete control
Outline: as §1

[1] = test system: smallflower umbrella sedge; test: Test C flooded paddy test; type: in vivo, Cyperus difformis; conditions: Cyperus difformis
pigweed = test: Test C pre-/postemergence herbicide test; type: in vivo, Amaranthus retroflexus; conditions: for Pigweed plant response rating: Preemergence, 500 g ai/ha, scale 0 to 100, 0 no effect, 100 complete control
Outline: as §1

yellow nutsedge = test: Test C pre-/postemergence herbicide test; type: in vivo, Cyperus esculentus; conditions: for Nutsedge, Yellow plant response rating: Preemergence, 500 g ai/ha, scale 0 to 100, 0 no effect, 100 complete control
Outline: as §1

rice = test: Test B pre-/postemergence herbicide test; type: in vivo, Oryza sativa
Outline: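 Formulation: non-phytotoxic solvent mix with surfactant. Timing: preemergence on seed and postemergence on 2–18 cm plants, applied concurrently. Readout after 13–15 d greenhouse: visual 0–100 control rating against controls.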

giant foxtail = test: Test C pre-/postemergence herbicide test; type: in vivo, Setaria faberi; conditions: for Foxtail, Giant plant response rating: Preemergence, 500 g ai/ha, scale 0 to 100, 0 no effect, 100 complete control
Outline: as §1

[2] = test system: common (oilseed) sunflower; test: Test C pre-/postemergence herbicide test; type: in vivo, Helianthus annuus; conditions: for Sunflower plant response rating: Preemergence, 500 g ai/ha, scale 0 to 100, 0 no effect, 100 complete control
Outline: as §1

barnyardgrass = test: Test C flooded paddy test; type: in vivo, Echinochloa crus-galli; conditions: Echinochloa crus-galli
Outline: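 Greenhouse test with a 12–14 day hold after application and visual comparison with controls. Emerged plants were 1- to 4-leaf stage (2–18 cm) when sprayed postemergence, and the paddy barnyardgrass was at 2 leaves under flooded conditions. 100 = complete control.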

morningglory = test: Test C pre-/postemergence herbicide test; type: in vivo, Ipomoea coccinea; parameters: key to Plant response rating, Morningglory: 0 = no effect, 100 = complete control; conditions: for Morningglory plant response rating: Preemergence, 500 g ai/ha, scale 0 to 100, 0 no effect, 100 complete control
Outline: as §1

bermudagrass = test: Test C pre-/postemergence herbicide test; type: in vivo, Cynodon dactylon
Outline: as §1

soybean = test: Test C pre-/postemergence herbicide test; type: in vivo, Glycine max; conditions: for Soybean plant response rating: Preemergence, 500 g ai/ha, scale 0 to 100, 0 no effect, 100 complete control
Outline: as §1

[3] = 62 g ai/ha, preemergence, scale 0 to 100
[4] = 125 g ai/ha, scale 0 (no effect) to 100 (complete control), visual, 12 to 14 days, preemergence
[5] = 250 g ai/ha, scale 0-100, preemergence
[6] = Preemergence, 500 g ai/ha, scale 0 to 100, 0 no effect, 100 complete control

SMILES: CCn1nc(C(C)(C)C)cc1C(=O)Nc1cc(C(=O)N(C)C)ccc1F [Compound 6, N-[5-[(dimethylamino)carbonyl]-2-fluorophenyl]-3-(1,1-dimethylethyl)-1-ethyl-1H-pyrazole-5-carboxamide]
- Plant response rating (0 = no effect, 100 = complete control), Cocklebur (cocklebur; 62 g ai/ha, preemergence): 60
- pest or weed control at 125 g/ha (cocklebur; Xanthium strumarium, pre-emergence, 312 h, 125 g ai/ha, scale 0-100, read-out: Plant response rating, Cocklebur): 100%
- pest or weed control at 250 g/ha (cocklebur; Xanthium strumarium, pre-emergence, 312 h, 250 g ai/ha, scale 0 to 100 (0 no effect, 100 complete control), visual, 12 to 14 days, read-out: Plant response rating, Cocklebur): 100%
- pest or weed control at 500 g/ha (cocklebur; Xanthium strumarium, pre-emergence, 312 h, Preemergence, 500 g ai/ha, scale 0 to 100, 0 no effect, 100 complete control, read-out: Cocklebur plant response rating): 100%
- Plant response rating (0 = no effect, 100 = complete control), Velvetleaf (velvetleaf; 62 g ai/ha, preemergence): 40
- pest or weed control at 250 g/ha (velvetleaf; Abutilon theophrasti, pre-emergence, 250 g ai/ha, scale 0 to 100 (0 no effect, 100 complete control), visual, 12 to 14 days, read-out: Plant response rating, Velvetleaf): 100%
- Velvetleaf plant response rating (velvetleaf): 100
- pest or weed control at 62 g/ha ([1]; 62 g ai/ha, scale 0 to 100 (0 no effect, 100 complete control), read-out: Sedge, Umbrella plant response rating): 70%
- pest or weed control at 125 g/ha ([1]; 125 g ai/ha, scale of 0 to 100, 0 is no effect, 100 is complete control, read-out: Sedge, Umbrella plant response rating): 90%
- pest or weed control at 250 g/ha ([1]; 250 g ai/ha, visual rating after 12 to 14 days, scale 0 to 100 (0 no effect, 100 complete control), read-out: Plant response rating, Sedge, Umbrella): 90%
- pest or weed control at 500 g/ha ([1]; 500 g ai/ha, visual rating after 12 to 14 days, scale 0 to 100 (0 no effect, 100 complete control), read-out: Plant response rating, Sedge, Umbrella): 90%
- Plant response rating (0 = no effect, 100 = complete control), Pigweed (pigweed; 62 g ai/ha, preemergence): 100
- pest or weed control at 250 g/ha (pigweed; Amaranthus retroflexus, pre-emergence, 250 g ai/ha, scale 0 to 100 (0 no effect, 100 complete control), visual, 12 to 14 days, read-out: Plant response rating, Pigweed): 100%
- Pigweed plant response rating (pigweed): 100
- Plant response rating (0 = no effect, 100 = complete control), Nutsedge, Yellow (yellow nutsedge; 62 g ai/ha, preemergence): 50
- pest or weed control at 250 g/ha (yellow nutsedge; Cyperus, pre-emergence, 250 g ai/ha, scale 0 to 100 (0 no effect, 100 complete control), visual, 12 to 14 days, read-out: Plant response rating, Nutsedge, Yellow): 80%
- Nutsedge, Yellow plant response rating (yellow nutsedge): 85
- Rice plant response rating (rice; Preemergence, 500 g ai/ha, scale 0 to 100): 100
- Plant response rating (0 = no effect, 100 = complete control), Foxtail, Giant (giant foxtail; 62 g ai/ha, preemergence): 60
- Foxtail, Giant plant response rating (giant foxtail): 100
- pest or weed control at 125 g/ha (giant foxtail; Setaria faberi, pre-emergence, 312 h, 125 g ai/ha, scale 0-100, read-out: Plant response rating, Foxtail, Giant): 80%
- pest or weed control at 250 g/ha (giant foxtail; Setaria faberi, pre-emergence, 312 h, 250 g ai/ha, scale 0 to 100 (0 no effect, 100 complete control), visual, 12 to 14 days, read-out: Plant response rating, Foxtail, Giant): 85%
- Plant response rating (0 = no effect, 100 = complete control), Sunflower ([2]; 62 g ai/ha, preemergence): 0
- pest or weed control at 250 g/ha ([2]; Helianthus annuus, pre-emergence, 250 g ai/ha, scale 0 to 100 (0 no effect, 100 complete control), visual, 12 to 14 days, read-out: Plant response rating, Sunflower): 100%
- Sunflower plant response rating [2]: 100
- pest or weed control at 62 g/ha (barnyardgrass; 62 g ai/ha, scale 0 to 100 (0 no effect, 100 complete control), read-out: Barnyardgrass plant response rating): 60%
- pest or weed control at 125 g/ha (barnyardgrass; 125 g ai/ha, scale of 0 to 100, 0 is no effect, 100 is complete control, read-out: Barnyardgrass plant response rating): 90%
- pest or weed control at 250 g/ha (barnyardgrass; 250 g ai/ha, visual rating after 12 to 14 days, scale 0 to 100 (0 no effect, 100 complete control), read-out: Plant response rating, Barnyardgrass): 90%
- pest or weed control at 500 g/ha (barnyardgrass; 500 g ai/ha, visual rating after 12 to 14 days, scale 0 to 100 (0 no effect, 100 complete control), read-out: Plant response rating, Barnyardgrass): 90%
- Plant response rating (0 = no effect, 100 = complete control), Morningglory (morningglory; 62 g ai/ha, preemergence): 0
- pest or weed control at 250 g/ha (morningglory; Ipomoea, pre-emergence, 250 g ai/ha, scale 0 to 100 (0 no effect, 100 complete control), visual, 12 to 14 days, read-out: Plant response rating, Morningglory): 30%
- Morningglory plant response rating (morningglory): 70
- Plant response rating (0 = no effect, 100 = complete control), Bermudagrass (bermudagrass; 62 g ai/ha, preemergence): 80
- pest or weed control at 125 g/ha (bermudagrass; Cynodon dactylon, pre-emergence, 312 h, 125 g ai/ha, scale 0-100, read-out: Plant response rating, Bermudagrass): 90%
- pest or weed control at 250 g/ha (bermudagrass; Cynodon dactylon, pre-emergence, 312 h, 250 g ai/ha, scale 0 to 100 (0 no effect, 100 complete control), visual, 12 to 14 days, read-out: Plant response rating, Bermudagrass): 90%
- pest or weed control at 500 g/ha (bermudagrass; Cynodon dactylon, pre-emergence, 312 h, Preemergence, 500 g ai/ha, scale 0 to 100, 0 no effect, 100 complete control, read-out: Bermudagrass plant response rating): 90%
- Plant response rating (0 = no effect, 100 = complete control), Soybean (soybean; 62 g ai/ha, preemergence): 70
- plant injury at 250 g/ha (soybean; Glycine max, pre-emergence, 250 g ai/ha, scale 0 to 100 (0 no effect, 100 complete control), visual, 12 to 14 days, read-out: Plant response rating, Soybean): 100%
- Soybean plant response rating (soybean): 100

SMILES: C=CCNC(=O)c1cccc(NC(=O)c2sc(C(C)(C)C)nc2C)c1 [Compound 202]
- Plant response rating, Cocklebur (cocklebur; [3]): 0
- Plant response rating, Cocklebur (cocklebur; [4]): 0
- Plant response rating, Cocklebur (cocklebur; [5]): 10
- Cocklebur plant response rating (cocklebur; [6]): 20
- Plant response rating, Velvetleaf (velvetleaf; [3]): 5
- Plant response rating, Velvetleaf (velvetleaf; [4]): 10
- Plant response rating, Velvetleaf (velvetleaf; [5]): 100
- Velvetleaf plant response rating (velvetleaf): 100
- Plant response rating, Pigweed (pigweed; [3]): 95
- Plant response rating, Pigweed (pigweed; [4]): 100
- Plant response rating, Pigweed (pigweed; [5]): 100
- Pigweed plant response rating (pigweed): 100
- Plant response rating, Nutsedge, Yellow (yellow nutsedge; [3]): 0
- Plant response rating, Nutsedge, Yellow (yellow nutsedge; [4]): 0
- Plant response rating, Nutsedge, Yellow (yellow nutsedge; [5]): 0
- Nutsedge, Yellow plant response rating (yellow nutsedge): 0
- Rice plant response rating (0 to 100 scale) (rice; 125 g ai/ha, 0 = no effect, 100 = complete control, preemergence): 10
- Plant response rating, Rice (rice; 500 g ai/ha, visual rating 0-100, 0 no effect, 100 complete control, preemergence): 30
- Plant response rating, Foxtail, Giant (giant foxtail; [3]): 0
- Plant response rating, Foxtail, Giant (giant foxtail; [4]): 40
- Plant response rating, Foxtail, Giant (giant foxtail; [5]): 80
- Foxtail, Giant plant response rating (giant foxtail): 100
- Plant response rating, Sunflower [2, 3]: 0
- Plant response rating, Sunflower [2, 4]: 0
- Plant response rating, Sunflower [2, 5]: 10
- Sunflower plant response rating [2]: 10
- Plant response rating, Morningglory (morningglory; [3]): 0
- Plant response rating, Morningglory (morningglory; [4]): 55
- Plant response rating, Morningglory (morningglory; [5]): 80
- Morningglory plant response rating (morningglory): 85
- Plant response rating, Bermudagrass (bermudagrass; 62 g ai/ha, preemergence, scale 0 to 100, 0 no effect, 100 complete control): 20
- Plant response rating, Bermudagrass (bermudagrass; [4]): 85
- Plant response rating, Bermudagrass (bermudagrass; [5]): 95
- Bermudagrass plant response rating (bermudagrass; [6]): 100
- Plant response rating, Soybean (soybean; [3]): 0
- Plant response rating, Soybean (soybean; [4]): 0
- Plant response rating, Soybean (soybean; [5]): 0
- Soybean plant response rating (soybean): 30
